Assays:
Ttpa^−/− females = test: Vitamin E supplementation of the diet and the fertility defect of Ttpa−/− female mice; assay type: in vivo, mouse; conditions: vitamin E supplementation 1000 IU/kg of diet, data not shown
From the text: Ttpa^−/− mice were generally healthy. Offspring from heterozygous intercrosses were born with the expected Mendelian distribution. Ttpa^−/− mice at 18 months of age had no obvious signs of neurological disease. In contrast, humans with α-TTP gene defects develop ataxia with vitamin E deficiency by the first decade of life (Sokol et al. (1988) J. Lab. Clin. Med. 111: 548-559; Ouahchi et al. (1995) Nat. Genet. 9: 141-145; Hentati et al. (1996) Ann. Neurol. 39: 295-300). […] Ttpa^−/− males had no obvious impairment in fertility.

apo E^−/− mice = conditions: apo E−/− mice fed a chow diet, vitamin E supplementation; cited from earlier work
femoral artery lesions = conditions: human clinical trial; cited from earlier work
[1] = tested on: abdominal aortas or iliac arteries; conditions: nonhuman primates; cited from earlier work

Compound	effect on fertility defect (Ttpa^−/− females)	levels of atherosclerosis (apo E^−/− mice)	progression of femoral artery lesions (femoral artery lesions)	lesion development in abdominal aortas or iliac arteries [1]
vitamin E	completely reversed the fertility defect	decreased levels of atherosclerosis		
CC(C)(Sc1cc(C(C)(C)C)c(O)c(C(C)(C)C)c1)Sc1cc(C(C)(C)C)c(O)c(C(C)(C)C)c1 [probucol]			did not prevent progression of femoral artery lesions	did not prevent
